*1 amine or outer side, *2 acyl side, *3 side chain or, on linkers, in order; H or OH if unused. Where a SMILES comes first, the peptide text is derived from it. Bridges are numbered along the chain shown (N, C = ends). [ ]: non-standard residue; d: D form. Trp(5-Cl) = N[C@@H](Cc1c[nH]c2ccc(Cl)cc12)C(=O)O; Phe(3,4-Cl2) = N[C@@H](Cc1ccc(Cl)c(Cl)c1)C(=O)O; Trp(5-OH) = N[C@@H](Cc1c[nH]c2ccc(O)cc12)C(=O)O; Pyridine(2,6-diCH2) = c1cc(C[*:1])nc(C[*:2])c1; Trp(7-F) = N[C@@H](Cc1c[nH]c2c(F)cccc12)C(=O)O; Phe(2,4-Cl2) = N[C@@H](Cc1ccc(Cl)cc1Cl)C(=O)O; X22 = O=C([C@H](Cc1cccc(Cl)c1Cl)N[*:1])[*:2]; Thz(5,5-Me2) = CC1(C)SCN[C@@H]1C(=O)O; Glutaryl = O=C(CCCC(=O)[*:2])[*:1]; Ser(ΨH,HPro) = O=C(O)[C@@H]1COCN1; Hyp = O=C(O)[C@@H]1C[C@@H](O)CN1; NMeE = CN[C@@H](CCC(=O)O)C(=O)O; Thz = O=C(O)[C@@H]1CSCN1; Thp = NC1(C(=O)O)CCOCC1

For the test, the target named is T1, GIPR (CHO-K1-hGIPR cells) (Homo sapiens, UniProt P48546).
T1 construct: host or cells: CHO-K1
T1 sequence (P48546 22-466): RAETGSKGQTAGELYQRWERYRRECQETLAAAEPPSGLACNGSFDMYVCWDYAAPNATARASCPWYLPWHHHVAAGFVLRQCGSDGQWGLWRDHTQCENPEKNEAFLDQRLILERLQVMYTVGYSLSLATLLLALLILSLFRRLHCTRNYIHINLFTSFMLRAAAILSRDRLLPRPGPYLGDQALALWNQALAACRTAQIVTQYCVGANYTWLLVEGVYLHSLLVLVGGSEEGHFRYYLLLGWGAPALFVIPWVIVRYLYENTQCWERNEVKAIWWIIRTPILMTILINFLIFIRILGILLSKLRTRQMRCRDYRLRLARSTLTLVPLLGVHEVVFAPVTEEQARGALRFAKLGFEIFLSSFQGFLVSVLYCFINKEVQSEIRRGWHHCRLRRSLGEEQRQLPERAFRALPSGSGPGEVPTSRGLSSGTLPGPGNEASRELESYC
Nature of the test: FACS binding assay. As to conditions: competition with 20 nM GIP-057, 4° C., 1 hour, read-out: pIC50 Category (converted). The procedure, abridged:
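CHO-K1 cells stably expressing human GIPR were detached with Accutase, suspended at 500.000 cells per mL in PBS with 1% FCS, and washed ice-cold. Bound peptide was detected with 1 μg/mL APC-streptavidin for 30 min on ice.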
In general terms: A flow cytometer gives signals particle by particle.
In the case of `CC[C@H](C)[C@@H]1NC(=O)[C@H](CC(C)C)NC(=O)C2(CCOCC2)NC(=O)[C@@H](NC(=O)[C@@H](CC(C)C)NC(=O)[C@H](CCC(=O)O)NC(=O)[C@@H]2C[C@@H](O)CN2C(=O)[C@H](Cc2c[nH]c3ccc(Cl)cc23)NC(=O)[C@H](Cc2ccc(Cl)cc2Cl)NC(=O)[C@H](CC(=O)O)NC(C)=O)CSCc2cccc(n2)CSC[C@@H](C(N)=O)NC1=O` [GIP-212, Ac-Asp-Egm-5Clw-Hyp-Glu-leu-[Cys(2Lut)-Thp-Leu-Ile-Cys]-NH2] (Ac-D[Phe(2,4-Cl2)][Trp(5-Cl)][Hyp]E[dL]C[Thp]LIC-NH2; linker 7-11 via Pyridine(2,6-diCH2)), the IC50 was < 10 nM. In the case of `CC[C@H](C)[C@@H]1NC(=O)[C@H](CC(C)C)NC(=O)C2(CCOCC2)NC(=O)[C@@H](NC(=O)[C@@H](CC(C)C)NC(=O)[C@H](CCC(=O)O)NC(=O)[C@@H]2C[C@@H](O)CN2C(=O)[C@H](Cc2ccc(Cl)c(Cl)c2)NC(=O)[C@H](Cc2c[nH]c3ccccc23)NC(=O)[C@H](CC(=O)O)NC(C)=O)CSCc2cccc(n2)CSC[C@@H](C(N)=O)NC1=O` [GIP-213, Ac-Asp-Trp-Eaa-Hyp-Glu-leu-[Cys(2Lut)-Thp-Leu-Ile-Cys]-NH2] (Ac-DW[Phe(3,4-Cl2)][Hyp]E[dL]C[Thp]LIC-NH2; linker 7-11 via Pyridine(2,6-diCH2)), the IC50 is < 10 nM. Turning to `CC[C@H](C)[C@@H]1NC(=O)[C@H](CC(C)C)NC(=O)C2(CCOCC2)NC(=O)[C@@H](NC(=O)[C@@H](CC(C)C)NC(=O)[C@H](CCC(=O)O)NC(=O)[C@@H]2C[C@@H](O)CN2C(=O)[C@H](Cc2c[nH]c3ccc(Cl)cc23)NC(=O)[C@H](Cc2c[nH]c3ccccc23)NC(=O)CCCC(=O)O)CSCc2cccc(n2)CSC[C@@H](C(N)=O)NC1=O` [GIP-214, HO-Glutar-Trp-5Clw-Hyp-Glu-leu-[Cys(2Lut)-Thp-Leu-Ile-Cys]-NH2] (Glutaryl-W[Trp(5-Cl)][Hyp]E[dL]C[Thp]LIC-NH2; linker 6-10 via Pyridine(2,6-diCH2)), the IC50 was < 10 nM. In the case of `CC[C@H](C)[C@@H]1NC(=O)[C@H](CC(C)C)NC(=O)C2(CCOCC2)NC(=O)[C@@H](NC(=O)[C@@H](CC(C)C)NC(=O)[C@H](CCC(=O)O)NC(=O)[C@H]2N(C(=O)[C@H](Cc3c[nH]c4ccc(Cl)cc34)NC(=O)[C@H](Cc3c[nH]c4ccccc34)NC(=O)[C@H](CC(=O)O)NC(C)=O)CSC2(C)C)CSCc2cccc(n2)CSC[C@@H](C(N)=O)NC1=O` [GIP-215, Ac-Asp-Trp-5Clw-Dtc-Glu-leu-[Cys(2Lut)-Thp-Leu-Ile-Cys]-NH2] (Ac-DW[Trp(5-Cl)][Thz(5,5-Me2)]E[dL]C[Thp]LIC-NH2; linker 7-11 via Pyridine(2,6-diCH2)), the IC50 was < 10 nM. Turning to `CC[C@H](C)[C@@H]1NC(=O)[C@H](CC(C)C)NC(=O)C2(CCOCC2)NC(=O)[C@@H](NC(=O)[C@@H](CC(C)C)NC(=O)[C@H](CCC(=O)O)NC(=O)[C@@H]2COCN2C(=O)[C@H](Cc2c[nH]c3ccc(Cl)cc23)NC(=O)[C@H](Cc2c[nH]c3ccccc23)NC(=O)[C@H](CC(=O)O)NC(C)=O)CSCc2cccc(n2)CSC[C@@H](C(N)=O)NC1=O` [GIP-216, Ac-Asp-Trp-5Clw-Oxa-Glu-leu-[Cys(2Lut)-Thp-Leu-Ile-Cys]-NH2] (Ac-DW[Trp(5-Cl)][Ser(ΨH,HPro)]E[dL]C[Thp]LIC-NH2; linker 7-11 via Pyridine(2,6-diCH2)), the IC50 is < 10 nM. Turning to `CC[C@H](C)[C@@H]1NC(=O)[C@H](CC(C)C)NC(=O)C2(CCOCC2)NC(=O)[C@@H](NC(=O)[C@H](CC(C)C)NC(=O)[C@H](CCC(=O)O)N(C)C(=O)[C@@H]2C[C@@H](O)CN2C(=O)[C@H](Cc2c[nH]c3ccc(Cl)cc23)NC(=O)[C@H](Cc2c[nH]c3ccccc23)NC(=O)[C@H](CC(=O)O)NC(C)=O)CSCc2cccc(n2)CSC[C@@H](C(N)=O)NC1=O` [GIP-217, Ac-Asp-Trp-5Clw-Hyp-Nme-Leu-[Cys(2Lut)-Thp-Leu-Ile-Cys]-NH2] (Ac-DW[Trp(5-Cl)][Hyp][NMeE]LC[Thp]LIC-NH2; linker 7-11 via Pyridine(2,6-diCH2)), the IC50 is < 10 nM. Consider `CC[C@H](C)[C@@H]1NC(=O)[C@H](CC(C)C)NC(=O)C2(CCOCC2)NC(=O)[C@@H](NC(=O)[C@@H](NC(=O)[C@H](CCC(=O)O)NC(=O)[C@@H]2C[C@@H](O)CN2C(=O)[C@H](Cc2c[nH]c3ccc(Cl)cc23)NC(=O)[C@H](Cc2c[nH]c3ccccc23)NC(=O)[C@H](CC(=O)O)NC(C)=O)[C@@H](C)CC)CSCc2cccc(n2)CSC[C@@H](C(N)=O)NC1=O` [GIP-218, Ac-Asp-Trp-5Clw-Hyp-Glu-Ile-[Cys(2Lut)-Thp-Leu-Ile-Cys]-NH2] (Ac-DW[Trp(5-Cl)][Hyp]EIC[Thp]LIC-NH2; linker 7-11 via Pyridine(2,6-diCH2)), for which the IC50 was < 10 nM. The result for `CC[C@H](C)[C@@H]1NC(=O)[C@H](CC(C)C)NC(=O)C2(CCOCC2)NC(=O)[C@@H](NC(=O)[C@@H](NC(=O)[C@H](CCC(=O)O)NC(=O)[C@@H]2C[C@@H](O)CN2C(=O)[C@H](Cc2c[nH]c3ccc(Cl)cc23)NC(=O)[C@H](Cc2c[nH]c3ccccc23)NC(=O)[C@H](CC(=O)O)NC(C)=O)C(C)C)CSCc2cccc(n2)CSC[C@@H](C(N)=O)NC1=O` [GIP-219, Ac-Asp-Trp-5Clw-Hyp-Glu-Val-[Cys(2Lut)-Thp-Leu-Ile-Cys]-NH2] (Ac-DW[Trp(5-Cl)][Hyp]EVC[Thp]LIC-NH2; linker 7-11 via Pyridine(2,6-diCH2)) reads < 10 nM. As for `CC[C@H](C)[C@@H]1NC(=O)[C@H](CC(C)C)NC(=O)C2(CCOCC2)NC(=O)[C@@H](NC(=O)[C@@H](CC(C)C)NC(=O)[C@H](CCC(=O)O)NC(=O)[C@@H]2C[C@@H](O)CN2C(=O)[C@H](Cc2c[nH]c3ccc(Cl)cc23)NC(=O)[C@H](Cc2c[nH]c3ccc(O)cc23)NC(=O)[C@H](CC(=O)O)NC(C)=O)CSCc2cccc(n2)CSC[C@@H](C(N)=O)NC1=O` [GIP-220, Ac-Asp-Hyw-5Clw-Hyp-Glu-leu-[Cys(2Lut)-Thp-Leu-Ile-Cys]-NH2] (Ac-D[Trp(5-OH)][Trp(5-Cl)][Hyp]E[dL]C[Thp]LIC-NH2; linker 7-11 via Pyridine(2,6-diCH2)), the IC50 is < 10 nM. Regarding `CC[C@H](C)[C@@H]1NC(=O)[C@H](CC(C)C)NC(=O)C2(CCOCC2)NC(=O)[C@@H](NC(=O)[C@@H](CC(C)C)NC(=O)[C@H](CCC(=O)O)NC(=O)[C@@H]2C[C@@H](O)CN2C(=O)[C@H](Cc2c[nH]c3ccc(Cl)cc23)NC(=O)[C@H](Cc2c[nH]c3c(F)cccc23)NC(=O)[C@H](CC(=O)O)NC(C)=O)CSCc2cccc(n2)CSC[C@@H](C(N)=O)NC1=O` [GIP-221, Ac-Asp-7Fw-5Clw-Hyp-Glu-leu-[Cys(2Lut)-Thp-Leu-Ile-Cys]-NH2] (Ac-D[Trp(7-F)][Trp(5-Cl)][Hyp]E[dL]C[Thp]LIC-NH2; linker 7-11 via Pyridine(2,6-diCH2)), the IC50 was < 10 nM. For `CC[C@H](C)[C@@H]1NC(=O)[C@H](CC(C)C)NC(=O)C2(CCOCC2)NC(=O)[C@@H](NC(=O)[C@@H](CC(C)C)NC(=O)[C@H](CCC(=O)O)NC(=O)[C@@H]2CSCN2C(=O)[C@H](Cc2c[nH]c3ccc(Cl)cc23)NC(=O)[C@H](Cc2c[nH]c3ccccc23)NC(=O)[C@H](CC(=O)O)NC(C)=O)CSCc2cccc(n2)CSC[C@@H](C(N)=O)NC1=O` [GIP-222, Ac-Asp-Trp-5Clw-Eaz-Glu-leu-[Cys(2Lut)-Thp-Leu-Ile-Cys]-NH2] (Ac-DW[Trp(5-Cl)][Thz]E[dL]C[Thp]LIC-NH2; linker 7-11 via Pyridine(2,6-diCH2)), the IC50 was < 10 nM. `CC[C@H](C)[C@@H]1NC(=O)[C@H](CC(C)C)NC(=O)C2(CCOCC2)NC(=O)[C@@H](NC(=O)[C@H](CC(C)C)NC(=O)[C@@H](CCC(=O)O)NC(=O)[C@@H]2C[C@@H](O)CN2C(=O)[C@H](Cc2c[nH]c3ccc(Cl)cc23)NC(=O)[C@H](Cc2c[nH]c3ccccc23)NC(=O)[C@H](CC(=O)O)NC(C)=O)CSCc2cccc(n2)CSC[C@@H](C(N)=O)NC1=O` [GIP-223, Ac-Asp-Trp-5Clw-Eaz-Glu-leu-[Cys(2Lut)-Thp-Leu-Ile-Cys]-NH2] (Ac-DW[Trp(5-Cl)][Hyp][dE]LC[Thp]LIC-NH2; linker 7-11 via Pyridine(2,6-diCH2)): the IC50 is < 10 nM. As for `CC[C@H](C)[C@@H]1NC(=O)[C@H](CC(C)C)NC(=O)C2(CCOCC2)NC(=O)[C@@H](NC(=O)[C@@H](CC(C)C)NC(=O)[C@H](CCC(=O)O)NC(=O)[C@@H]2C[C@@H](O)CN2C(=O)[C@H](Cc2c[nH]c3ccc(Cl)cc23)NC(=O)[C@H](Cc2ccccc2)NC(=O)[C@H](CC(=O)O)NC(C)=O)CSCc2cccc(n2)CSC[C@@H](C(N)=O)NC1=O` [GIP-224, Ac-Asp-Phe-5Clw-Hyp-Glu-leu-[Cys(2Lut)-Thp-Leu-Ile-Cys]-NH2] (Ac-DF[Trp(5-Cl)][Hyp]E[dL]C[Thp]LIC-NH2; linker 7-11 via Pyridine(2,6-diCH2)), the figure is < 10 nM; as for `CC[C@H](C)[C@@H]1NC(=O)[C@H](CC(C)C)NC(=O)C2(CCOCC2)NC(=O)[C@@H](NC(=O)[C@@H](CC(C)C)NC(=O)[C@H](CCC(=O)O)NC(=O)[C@@H]2C[C@@H](O)CN2C(=O)[C@H](Cc2c[nH]c3ccc(Cl)cc23)NC(=O)[C@H](Cc2cccc(Cl)c2Cl)NC(=O)[C@H](CC(=O)O)NC(C)=O)CSCc2cccc(n2)CSC[C@@H](C(N)=O)NC1=O` [GIP-226, Ac-Asp-Egp-5Clw-Hyp-Glu-leu-[Cys(2Lut)-Thp-Leu-Ile-Cys]-NH2] (Ac-D[X22][Trp(5-Cl)][Hyp]E[dL]C[Thp]LIC-NH2; linker 7-11 via Pyridine(2,6-diCH2)), < 10 nM.

(Values after patent publication US20250296971A1, “GASTRIC INHIBITORY PEPTIDE RECEPTOR LIGANDS” (priority 2021, published 2025).)
